Consider 6 molecules from patent publication US11857601B2, “Pharmaceutical composition for cancer treatment comprising fusion protein including IL-2 protein and CD80 protein and anticancer drug” (GI INNOVATION, INC., priority 2020, dated 2024).

The test system of test [1] is Renca cells. In words: mGI-101 and Lenvatinib in Renca allotransplanted tumor model. It is filed as in vivo, BALB/c mice. Particulars: mGI-101 twice a week (BIW), Lenvatinib daily, 10 mice per group. How it is done:
Renca cells were purchased from ATCC (USA) and cultured in RPMI1640 medium (Gibco) containing 10% FBS (Gibco) and 1% antibiotic/antifungal agent (Gibco). The cultured cells were harvested using trypsin (Gibco) and then suspended in PBS. In order to establish an allotransplanted tumor model, 5×10^6 Renca cells were subcutaneously injected into the back of BALB/c female mice (8-week-old).
A certain period of time after cell inoculation of the tumor grafts of the mice, the tumor volume was measured for animals with no abnormalities in the health condition of the animals, and the mice were randomly selected and assigned, each group including 10 mice.
The death of the mouse, the type of general symptoms, the date of onset, and the severity of symptoms were observed once a day during the test period, and recorded for each subject.
(§1) The tumor volume before administration of each subject was set as the value measured at the time of grouping, and the anti-tumor efficacy was evaluated as compared with the vehicle control.
(§2) All statistical calculations were performed using Prism 8.0 (Graph Pad Software Inc, USA). The comparison of tumor volume measurements was made through two-way analysis of variance followed by Tukey's multiple comparison test. A p value of less than 0.05 was considered significant.

In test [2] the test system is CT26 cells. In words: mGI-101 and Lenvatinib in CT26 allotransplanted tumor model. It is filed as in vivo, BALB/c mice. Here is the method: CT26 cells were purchased from ATCC (USA) and cultured in RPMI1640 medium (Gibco) containing 10% FBS (Gibco) and 1% antibiotic/antifungal agent (Gibco). The cultured cells were harvested using trypsin (Gibco) and then suspended in PBS. In order to establish an allotransplanted tumor model, 1×10^6 CT26 cells were subcutaneously injected into the right flank of BALB/c female mice (7-week-old).
A certain period of time after the cell transplantation, the tumor volume was measured for animals with no abnormalities in the health condition of the animals, and the mice were assigned so that the average tumor volume of each group was less than 70-100 mm^3, each group including 10 mice.
In the case of Lenvatinib powder, the dose was calculated and weighed, and it was prepared to the dose concentration using a 0.5% methyl cellulose excipient. In order to minimize the loss of the test substance, the doses for 3 or 4 days were weighed, and prepared using the excipient on the day of administration and injected.
(§3) Clinical symptoms such as a disease and a behavioral change were observed once a day during the test period, and deceased animals were identified, and the mice were sacrificed when the tumor size reached a size of 4,000 mm^3.
(§4) The tumor volume before administration of each subject was set as the value measured at the time of grouping.
as §2

Test [3] concerns CT26 cells. Kind of test: mGI-101 and Axitinib in CT26 allotransplanted tumor model.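 Further: subcutaneous CT26 syngeneic tumors in male BALB/c mice, dosing started once tumors were near 50 mm^3, drugs given orally or intraperitoneally for up to 3 weeks.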 The note with it: mGI-101 3 mg/kg IP, Axitinib 30 mg/kg PO.
Protocol: (§5) Mouse-derived colorectal cancer cells, CT26 (Mus musculus, Colon adenocarcinoma), and mouse-derived lung cancer cells, LL/2 (Mus musculus, Lung adenocarcinoma), were purchased from ATCC (USA) and used for the test. The cells to be used for the test were thawed, mixed with RPMI1640 (A1049101, Thermofisher scientific) medium containing 10% FBS (fetal bovine serum, Gibco, 10082-147), and then placed in a cell culture flask, and cultured in a 37° C., 5% CO2 incubator. The cells were washed with PBS, and then the cells were isolated using Trypsin-EDTA (15090, Gibco), and centrifugation (125×g, 5 minutes) was performed to discard the supernatant, and then the cells were suspended in a new medium to obtain the cell suspension. The viability of the cells was identified, and then a cell line was prepared by diluting in a medium to a concentration of 5.0×10^6 cells/mL.
(§6) 6-week-old male BALB/cAnHsd mice or C57BL/6NHsd mice were purchased and used for the test. After the end of the acclimation period of 7 days, the cells were transplanted into healthy animals. The cell suspension (5×10^6 cells/mL) was dispensed, and filled into a disposable syringe, and transplantation of the suspension was performed by subcutaneous administration at 0.1 mL/head in the right dorsal region of the animals. General symptoms were observed once a day during the engraftment and growth period after cell line transplantation.
(§7) After the inoculation of the cell line was performed, when the tumor size at the site to which the cell line was transplanted reached about 50 mm^3, the tumor size of each group was distributed as uniformly as possible according to the ranked tumor size.
(§8) The test substance was administered orally or intraperitoneally, and administered for 3 weeks depending on the composition of the test group. In the case of oral administration, the animals were fixed with the cervical spine skin fixation method, and administered directly into the stomach using a sonde for oral administration. In the case of intraperitoneal administration, the animals were fixed with the cervical spine skin fixation method, and administered intraperitoneally using a syringe equipped with a 26 gauge needle. The administration rate was not to exceed 200 μl/min.
Syngeneic model was prepared by subcutaneously transplanting the CT26 cell line into Balb/c mice, and then the test substance was administered to evaluate the anticancer effect.
The test system of test [4] is LL/2 cell line. Kind of test: mGI-101 and Axitinib in LL/2 allotransplanted tumor model. Particulars: mGI-101 3 mg/kg IP, Axitinib 30 mg/kg PO. Format: in vivo, C57BL/6 mice.
Protocol: as §5, §6, §7, §8
Syngeneic model was prepared by subcutaneously transplanting the LL/2 cell line into C57BL/6 mice, and then the test substance was administered to evaluate the anticancer effect.
In test [5] the test system is MDA-MB-231 cells. Kind of test: GI101 and Keytruda in humanized mice xenotransplanted with MDA-MB-231. It is filed as in vivo, human. How it is done: Fetal bovine serum (FBS, 16000-044, Thermofisher scientific, USA), penicillin-streptomycin; 10,000 units/ml penicillin and 10,000 μg/ml streptomycin (15140122, Thermofisher scientific, USA); and RPMI1640 (A1049101, Thermofisher scientific, USA) per 100 ml were mixed and used.
The cells were suspended using Trypsin-EDTA (Cat. 25200-072, Thermofisher scientific, USA). The suspended cells were collected by centrifugation (125×g, 5 minutes) using a centrifuge, transferred to a new medium and a new flask, and passage cultured. The cultured cells were put to a centrifugation tube on the day of cell line transplantation and then collected. […] 8-week-old female NSGb2m (NOD.Cg-B2m^tm1UncPrkdc^scidIl2rg^tm1Wjl/SzJ) mice were purchased from Joongang Bio (Korea) and used for the test. The body weight was measured the next day after the end of the quarantine and acclimation period, and then the human-derived PBMC cell suspension (5×10^6 cells/0.2 ml) prepared for healthy animals was filled into a disposable syringe and administered to the caudal vein of the animals. General symptoms were observed once a day after cell transplantation.
A certain period of time after the cell transplantation, the tumor volume was measured for animals with no abnormalities in the health condition of the animals, and 32 subjects were selected so that the average of each group reached 40 to 80 mm^3. The selected animals were grouped into a total of 4 groups as evenly as possible based on tumor volume and body weight, each group including 8 animals.
General symptoms such as appearance, behavior, and excrement were observed once a day during the observation period, and deceased animals were identified. Body weight was measured on the day of cell line transplantation, twice a week, and on the day of animal sacrifice. The major axis (maximum length, L) and minor axis (perpendicular width, W) of the tumor were measured using a caliper (Digital caliper, mitutoyo, Japan) three times a week during the observation period, and the tumor volume (TV) was calculated by substituting them into the following equations.
as §4

The subject of test [6] is CT26 (mouse colon carcinoma) cells. Kind of test: mGI-101 and Galunisertib in CT26 allotransplanted tumor model. It is filed as in vivo, BALB/cAnHsd mice. Particulars: mean ± SD, mGI-101 3 mg/kg IP, Galunisertib 75 mg/kg PO. Here is the method:
6-week-old male BALB/cAnHsd mice were purchased and used for the test.
The tumor size was measured three times a week for 3 weeks from the day of start of administration of the test substance. The major axis and minor axis of the tumor were measured using a caliper, and the tumor size (tumor volume, TV) was calculated using the following equations. TV (mm^3)=(W^2×L)/2 [Equation 1]

Test [7] relates to CD8+ T cells and CD4+/FoxP3+ Treg cells. In words: Proliferation of CD8+ T cells and Treg cells in PBMCs (Exp. Ex. 10). Format: cell-based, human. Here is the method:
Human PBMCs were purchased from Allcells (Lot #3014928, USA). […] CellTrace CFSE dye was used, which was reacted with the human PBMCs under a light-blocking condition at […] for 20 minutes. The cells were labeled with CFSE by being reacted with 1 μM CellTrace CFSE dye at 37° C. for 20 minutes. CFSE not bound to the cells was removed by being reacted for 5 minutes with a culture medium having a 5-fold volume of the staining reaction solution and then by being centrifuged at 1,300 rpm for 5 minutes. The CFSE-labeled PBMCs were resuspended in the culture medium (RPMI1640 medium containing 10% fetal bovine serum, 10 mM HEPES, 100 U/ml penicillin/streptomycin, 1 mM sodium pyruvate, 55 μM 2-mercaptoethanol, 1 mM non-essential amino acid, and 2 mM L-glutamine), and then added to a 96-well microplate at 1×10^5 cells per well.
The incubated cells were examined for their degree of proliferation by measuring, with FACS analysis using anti-human CD4-PE antibody (BioLegend, USA), anti-human CD8-PE/Cy7 antibody (BioLegend, USA), and anti-human FoxP3-APC antibody (BioLegend, USA), a proportion of CD8+ T cells that had not been labeled with CFSE.

In test [8] the test system is EMT6 cells. Kind of test: mGI-101 and Paclitaxel in EMT6 allotransplanted tumor model. It is filed as in vivo, BALB/c mice. How it is done: EMT6 cells were purchased from ATCC (USA) and cultured in Waymouth MB 751/1 medium (WELGENE) containing 10% FBS (Gibco) and 1% antibiotic/antifungal agent (Gibco). The cultured cells were harvested using trypsin (Gibco), and then a high-concentration cell suspension (2×10^6 cells/0.4 mL) for 10 mice was prepare with PBS and stored on ice until injected into mice. In order to establish an allotransplanted tumor model, the skin was incised slightly away from the 4th nipple position from the upper right of the ventral region of BALB/c female mice (7-week-old), and the location of mammary fat pad at the incised site was identified, and then EMT6 cell line prepared inside the mammary fat pad was injected at 2×10^5 cells/40 uL/head.
A certain period of time after cell inoculation of the tumor grafts of the mice, the tumor volume was measured for animals with no abnormalities in the health condition of the animals, and the subjects were selected so that the average of each group reached less than 70-100 mm^3, and the selected animals were assigned as evenly as possible based on tumor volume and body weight, each group including 10 animals. As shown in Table 24 and FIG. 106, the test groups were configured and the test substances were administered.
as §3, §1, §2

The mark [9] stands for this setting: end of the experiment, 10 mice per group.
[10] abbreviates: day 42 vs day 21 after tumor transplantation, 8 animals per group.

Marks after values point to notes of the source that are not given here.

`COc1cc2nccc(Oc3ccc(NC(=O)NC4CC4)c(Cl)c3)c2cc1C(N)=O` [Lenvatinib]: in test [1], the “number of mice with tumor growth inhibition rate of 30% or more” value amounted to 4 mice, the “number of mice with tumor growth inhibition rate of 50% or more” value is on record as 2 mice and the “number of mice with tumor growth inhibition rate of 80% or more” value is reported as “no mouse”. Besides, in test [2] (setting [9]), the “number of mice with tumor growth inhibition rate of 30% or more” value amounted to 6 mice, the “number of mice with tumor growth inhibition rate of 50% or more” value is 4 mice and the “number of mice with tumor growth inhibition rate of 80% or more” value is 1 mice. Moreover, the “anticancer effect (tumor size) compared with the control” value in test [2] (mGI-101 3 mg/kg i.v. QW, Lenvatinib 3 mg/kg p.o. daily, Lenvatinib day 18, 21, combination day 16, 18, 21) was “statistically significant anticancer effect”.

Consider `CNC(=O)c1ccccc1Sc1ccc2c(/C=C/c3ccccn3)n[nH]c2c1` [Axitinib, reference compound], for which the Tumor size in test [3] (Day 0, mean ± SD) is recorded as 61.67 ± 12.58 mm^3; in test [3] (Day 5, mean ± SD), 261.76 ± 61.86 mm^3; in test [3] (Day 7, mean ± SD), 354.05 ± 104.90 mm^3; in test [3] (Day 9, mean ± SD), 442.98 ± 148.70 mm^3; in test [3] (Day 12, mean ± SD), 529.85 ± 206.76 mm^3; in test [3] (Day 14, mean ± SD), 671.72 ± 303.14* mm^3. Besides, the Tumor size was 970.72 ± 475.99** mm^3 in test [3] (Day 16, mean ± SD); 1129.12 ± 639.16**** mm^3 in test [3] (Day 19, mean ± SD); 1710.57 ± 1133.79**** mm^3 in test [3] (Day 21, mean ± SD); 55.77 ± 11.25 mm^3 in test [4] (Day 0, mean ± SD); 88.73 ± 21.26 mm^3 in test [4] (Day 2, mean ± SD); 179.31 ± 52.62 mm^3 in test [4] (Day 5, mean ± SD). For the same molecule, the Tumor size in test [4] (Day 7, mean ± SD) is reported as 362.30 ± 97.92 mm^3; in test [4] (Day 9, mean ± SD) it was 584.17 ± 172.94 mm^3; in test [4] (Day 12, mean ± SD) it was 892.90 ± 256.88 mm^3; in test [4] (Day 14, mean ± SD) it was 1292.27 ± 385.43 mm^3; in test [4] (Day 16, mean ± SD), 1775.26 ± 462.50 (9) mm^3; in test [4] (Day 19, mean ± SD), 2551.08 ± 695.31 (9) mm^3. In test [4] (Day 21, mean ± SD), the Tumor size is recorded as 4236.33 ± 1060.18 (9)**^,## mm^3.

Consider “Keytruda: Keytruda (Pembrolizumab, MSD), an anti-PD-1 antibody [reference compound]”, for which the tumor growth result in test [5] (GI101 6 mg/kg, Keytruda 5 mg/kg, 4 administrations, compared with the control (hIgG4)) was “tumor growth inhibition”. Besides, in test [5] (setting [10]), the “number of mice with tumor growth inhibition rate of 30% or more” value turned out to be 7 mice, the “number of mice with tumor growth inhibition rate of 50% or more” value was 5 mice and the “number of mice with tumor growth inhibition rate of 80% or more” value stood at 3 mice.

In the case of `Cc1cccc(-c2nn3c(c2-c2ccnc4ccc(C(N)=O)cc24)CCC3)n1` [Galunisertib, reference compound], the Tumor size in test [6] (Day 0) stood at 61.98 ± 12.23 mm^3; in test [6] (Day 2), 187.20 ± 55.14 mm^3; in test [6] (Day 4), 260.69 ± 78.70 mm^3; in test [6] (Day 7), 398.78 ± 146.30 mm^3. The results for the Tumor growth inhibition in test [6] (Day 2), in test [6] (Day 4) and in test [6] (Day 7) were 15.60 ± 38.26%, 34.09 ± 27.14% and 21.12 ± 34.98%, respectively.

For “GI101C2: comparative fusion protein: Fc domain, linker, IL-2 variant (2M) (R38A, F42A); SEQ ID NO: 19”, the “proportion of CD8+ T cells” value in test [7] (anti-CD3ε 1 μg/ml, 7 days, compared with no stimulus, anti-CD3 antibody alone and GI101C1) is listed as “significant increase”. Further, in test [7] (compared with no stimulus and anti-CD3 antibody alone), the “proliferation of CD4+/FoxP3+ Treg cells” value was “significant increase”.

On to `CC(=O)O[C@H]1C(=O)[C@@]2(C)[C@H]([C@H](OC(=O)c3ccccc3)[C@]3(O)C[C@H](OC(=O)[C@H](O)[C@@H](NC(=O)c4ccccc4)c4ccccc4)C(C)=C1C3(C)C)[C@]1(OC(C)=O)CO[C@@H]1C[C@@H]2O` [Paclitaxel, reference compound], for which, in test [8] (EMT6, 10 animals per group), the “number of mice with tumor growth inhibition rate of 30% or more” value amounted to 7 mice, the “number of mice with tumor growth inhibition rate of 50% or more” value was determined as 4 mice and the “number of mice with tumor growth inhibition rate of 80% or more” value is recorded as 2 mice. Further, the “tumor size vs control” value in test [8] (day 13, mGI-101 3 mg/kg i.v. QW, Paclitaxel 10 mg/kg i.p. 7 consecutive days) is recorded as “statistically significantly lower”.
